The record followed here is patent publication US7989633B2, “4-Chromenonyl-1,4-dihydropyridines and their use” (Bayer Schering Pharma Aktiengesellschaft, priority 2005, dated 2011).

The target in the test is T1, human mineralocorticoid receptor (MR) (Homo sapiens, UniProt P08235).
T1 construct: expressed in transfected cells
T1 sequence (P08235 734-984 limits assumed): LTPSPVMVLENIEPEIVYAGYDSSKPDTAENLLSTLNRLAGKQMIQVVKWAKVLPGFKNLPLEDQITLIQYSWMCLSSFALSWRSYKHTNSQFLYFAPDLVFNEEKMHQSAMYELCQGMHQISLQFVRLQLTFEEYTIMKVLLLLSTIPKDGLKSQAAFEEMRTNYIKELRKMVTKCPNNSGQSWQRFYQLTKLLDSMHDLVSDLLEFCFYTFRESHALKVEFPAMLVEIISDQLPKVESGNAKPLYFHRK
Kind of test: Cellular in vitro assay to determine the inhibitory MR activity (GAL4-MR chimera luciferase reporter in CHO K1 cells). The format is cell-based. Conditions: GAL4-MR ligand-binding domain chimera in CHO K1 cells, agonist aldosterone. The source says: 1. Cellular In Vitro Assay to Determine the Inhibitory MR Activity and MR Selectivity Compared with Other Steroid Hormone Receptors
Antagonists of the human mineralocorticoid receptor (MR) are identified, and the activity of the compounds described herein is quantified with the aid of a recombinant cell line. The cell is originally derived from a hamster ovary epithelial cell (Chinese Hamster Ovary, CHO K1, ATCC: American Type Culture Collection, VA 20108, USA).
An established chimera system in which the ligand-binding domains of human steroid hormone receptors are fused to the DNA-binding domain of the yeast transcription factor GAL4 is used in this CHO K1 cell line. The GAL4-steroid hormone receptor chimeras produced in this way are cotransfected and stably expressed with a reporter construct in the CHO cells.
To generate the GAL4-steroid hormone receptor chimeras, the GAL4 DNA binding domain (amino acids 1-147) from the vector pFC2-dbd (from Stratagene) is cloned with the PCR-amplified ligand-binding domains of the mineralocorticoid receptor (MR, amino acids 734-985), of the glucocorticoid receptor (GR, amino acids 443-777), of the progesterone receptor (PR, amino acids 680-933) and of the androgen receptor (AR, amino acids 667-919) into the vector pIRES2 (from Clontech). The reporter construct, which comprises five copies of the GAL4 binding site upstream of a thymidine kinase promoter, leads to expression of firefly-luciferase (Photinus pyralis) after activation and binding of the GAL4-steroid hormone receptor chimeras by the respective specific agonists aldosterone (MR), dexamethasone (GR), progesterone (PR) and dihydrotestosterone (AR).
The MR, GR, PR and AR cells are plated out in medium (Optimem, 2.5% FCS, 2 mM glutamine, 10 mM HEPES) in 96- (or 384- or 1536-) well microtiter plates on the day before the assay and are kept in a cell incubator (96% humidity, 5% v/v CO2, 37° C.). On the day of the assay, the substances to be tested are taken up in the abovementioned medium and added to the cells. About 10 to 30 minutes after addition of the test substances, the respective specific agonists of the steroid hormone receptors are added. After a further incubation time of 5 to 6 hours, the luciferase activity is measured with the aid of a video camera. The measured relative light units as a function of the substance concentration result in a sigmoidal stimulation curve. The IC50 values are calculated with the aid of the GraphPad PRISM computer program (Version 3.02).
A word on the IC50: it is the concentration at which inhibition is half-maximal. A high value points to weaker potency in that assay. With `CCOC(=O)C1=C(C)NC(C)=C(C(C)=O)C1c1cccc2c(=O)cc(C)oc12` (single isomer, unassigned) [Example 1 (Enantiomer 2), Ethyl 5-acetyl-2,6-dimethyl-4-(2-methyl-4-oxo-4H-chromen-8-yl)-1,4-dihydropyridine-3-carboxylate], the half-maximal inhibitory concentration (IC50) is 43 nM.
Next, `CCOC(=O)C1=C(C)NC(C)=C(C(=O)c2ccccc2)C1c1cccc2c(=O)cc(C)oc12` (stereo not shown) [Example 14, Ethyl 5-benzoyl-2,6-dimethyl-4-(2-methyl-4-oxo-4H-chromen-8-yl)-1,4-dihydropyridine-3-carboxylate]: 104 nM.
In turn, `COC(=O)C1=C(C)NC(C)=C(C(C)=O)C1c1cccc2c(=O)cc(C)oc12` (stereo not shown) [Example 4, Methyl 5-acetyl-2,6-dimethyl-4-(2-methyl-4-oxo-4H-chromen-8-yl)-1,4-dihydropyridine-3-carboxylate] returned a half-maximal inhibitory concentration (IC50) of 235 nM.
Next, `CCOC(=O)C1=C(C)NC(C)=C(C(C)=O)C1c1ccc(F)c2c(=O)cc(C)oc12` (stereo not shown) [Example 11, Ethyl 5-acetyl-2,6-dimethyl-4-(5-fluoro-2-methyl-4-oxo-4H-chromen-8-yl)-1,4-dihydropyridine-3-carboxylate]: 74 nM; `CC(=O)C1=C(C)NC(C)=C(C(=O)OC2CCCC2)C1c1cccc2c(=O)cc(C)oc12` (stereo not shown) [Example 2, Cyclopentyl 5-acetyl-2,6-dimethyl-4-(2-methyl-4-oxo-4H-chromen-8-yl)-1,4-dihydropyridine-3-carboxylate]: 22 nM.
For `COC(=O)C1=C(C)NC(C)=C(C(=O)CC2CCC2)C1c1cccc2c(=O)cc(C)oc12` (stereo not shown) [Example 34, Methyl 5-(cyclobutylacetyl)-2,6-dimethyl-4-(2-methyl-4-oxo-4H-chromen-8-yl)-1,4-dihydro-pyridine-3-carboxylate] the value was 18 nM; for `CC1=C(C(=O)OC(C)C)C(c2cccc3c(=O)cc(C)oc23)C(C(=O)C(F)(F)F)=C(C)N1` (stereo not shown) [Example 8, Isopropyl 2,6-dimethyl-4-(2-methyl-4-oxo-4H-chromen-8-yl)-5-(trifluoroacetyl)-1,4-dihydro-pyridine-3-carboxylate], 19 nM.
Next, `CCOC(=O)C1=C(C)NC(C)=C(C(C)=O)C1c1cccc2c(=O)cc(C)oc12` (racemic) [Example 1 (Racemate), Ethyl 5-acetyl-2,6-dimethyl-4-(2-methyl-4-oxo-4H-chromen-8-yl)-1,4-dihydropyridine-3-carboxylate]: 75 nM; `CC(=O)C1=C(C)NC(C)=C(C(=O)OC(C)C)C1c1cccc2c(=O)cc(C)oc12` (stereo not shown) [Example 3, Isopropyl 5-acetyl-2,6-dimethyl-4-(2-methyl-4-oxo-4H-chromen-8-yl)-1,4-dihydropyridine-3-carboxylate]: 39 nM; `COC(=O)C1=C(C)NC(C)=C(C(=O)c2ccc(C)cc2)C1c1cccc2c(=O)cc(C)oc12` (stereo not shown) [Example 37, Methyl 2,6-dimethyl-5-(4-methylbenzoyl)-4-(2-methyl-4-oxo-4H-chromen-8-yl)-1,4-dihydro-pyridine-3-carboxylate]: 27 nM.
